Test results reported in patent US20100092526A1, “NANOEMULSION THERAPEUTIC COMPOSITIONS AND METHODS OF USING THE SAME” (NanoBio Corporation, priority 2008, published 2010).
In brackets after ≈: the same amount, converted by molar mass. Several values for one entry are separate records, joined by “and”; a condition that tells them apart may be missing. Identical values can stand only once.

How the values were obtained:
Type in all cases: cell-based
[1] = tested on: methicillin-resistant Staphylococcus aureus (MRSA); assay: Susceptibility (MIC/MBC) of MRSA clinical isolates; settings: for MBC50(15) / MIC50(15) / MBC90(26) / MIC90(26): 29 MRSA clinical isolates; for MBC50(15) / MIC50(15): rank 15; for MBC90(26) / MIC90(26): rank 26; for MBC / MIC: individual MRSA clinical isolates, values listed by rank order 1-29
[2] = tested on: Acinetobacter strains; assay: Checkerboard synergy study (FIC/FBC index); settings: combined with P4075EC+EDTA
[3] = tested on: Stenotrophomonas strains; assay: Checkerboard synergy study (FIC/FBC index); settings: combined with P4075EC+EDTA
[4] = tested on: Burkholderia strains; assay: Checkerboard synergy study (FIC/FBC index); settings: combined with P4075EC+EDTA
[5] = share of 10 Acinetobacter strains with synergy
[6] = share of Stenotrophomonas strains with synergy
[7] = share of ten Burkholderia strains with synergy

C/C(=C\C(=O)OCCCCCCCCC(=O)O)C[C@@H]1OC[C@H](C[C@@H]2O[C@H]2[C@@H](C)[C@H](C)O)[C@@H](O)[C@H]1O [Mup]
MBC50(15) [1]: >2 µg/mL
MIC50(15) [1]: 0.25 µg/mL (≈ 0.499 µM)
MBC90(26) [1]: >64 µg/mL
MIC90(26) [1]: >64 µg/mL
MBC [1]: >64 μg/ml (9×) and >8 μg/ml and >4 μg/ml (5×) and >2 μg/ml (11×) and 1 μg/ml (3×)
MIC [1]: >64 μg/ml (8×) and 16 μg/ml and 0.25 μg/ml (9×) and 0.125 μg/ml (11×)

C/C(=C\C(=O)OCCCCCCCCC(=O)O)C[C@@H]1OC[C@H](C[C@@H]2O[C@H]2[C@@H](C)[C@H](C)O)[C@@H](O)[C@H]1O [Mupirocin, mupirocin]
isolates resistant ([1]; MRSA isolates): 31%

Cc1onc(-c2ccccc2)c1C(=O)N[C@@H]1C(=O)N2[C@@H]1SC(C)(C)[C@@H]2C(=O)O [Ox]
MBC50(15) [1]: >16 µg/mL
MIC50(15) [1]: >16 µg/mL
MBC90(26) [1]: >16 µg/mL
MIC90(26) [1]: >16 µg/mL
MBC [1]: >16 μg/ml (28×) and 1 μg/ml
MIC [1]: >16 μg/ml (26×) and 16 μg/ml (2×) and 0.5 μg/ml

NC[C@H]1O[C@H](O[C@H]2[C@H](O)[C@@H](O[C@H]3O[C@H](CO)[C@@H](O)[C@H](N)[C@H]3O)[C@H](N)C[C@@H]2N)[C@H](N)C[C@@H]1O [Tobra]
FBC ([2]; isolate NB31): 1.50
FIC ([2]; isolate NB31): 0.98
Synergy (FBC) ([2]; isolate NB31): no
Synergy (FIC) ([2]; isolate NB31): indifferent
FBC ([2]; isolate NB32): 1.79
FIC ([2]; isolate NB32): 0.88
Synergy (FBC) ([2]; isolate NB32): no
Synergy (FIC) ([2]; isolate NB32): indifferent
FBC ([2]; isolate NB33): 1.75
Synergy (FBC) ([2]; isolate NB33): no
Synergy (FIC) ([2]; isolate NB33): indifferent
FBC ([2]; isolate NB34): 0.24
FIC ([2]; isolate NB34): 0.41
Synergy (FBC) ([2]; isolate NB34): yes
Synergy (FIC) ([2]; isolate NB34): yes
FIC ([2]; isolate NB35): 1.21
Synergy (FBC) ([2]; isolate NB35): no
Synergy (FIC) ([2]; isolate NB35): indifferent
FBC ([2]; isolate NB36): 2.29
FIC ([2]; isolate NB36): 3.30
Synergy (FBC) ([2]; isolate NB36): no
Synergy (FIC) ([2]; isolate NB36): indifferent
FBC ([2]; isolate NB37): 1.72
FIC ([2]; isolate NB37): 0.75
Synergy (FBC) ([2]; isolate NB37): no
Synergy (FIC) ([2]; isolate NB37): indifferent
FBC ([2]; isolate NB38): 1.57
FIC ([2]; isolate NB38): 1.05
Synergy (FBC) ([2]; isolate NB38): no
Synergy (FIC) ([2]; isolate NB38): indifferent
FBC ([2]; isolate NB39): 3.52
FIC ([2]; isolate NB39): 3.30
Synergy (FBC) ([2]; isolate NB39): no
Synergy (FIC) ([2]; isolate NB39): indifferent
FBC ([2]; isolate NB40): 3.01
FIC ([2]; isolate NB40): 3.01
Synergy (FBC) ([2]; isolate NB40): no
Synergy (FIC) ([2]; isolate NB40): indifferent
% FBC Synergy [2, 5]: 10%
% FIC Synergy [2, 5]: 10%
FBC ([3]; isolate NB42): 2.15
FIC ([3]; isolate NB42): 0.14
Synergy (FBC) ([3]; isolate NB42): indifferent
Synergy (FIC) ([3]; isolate NB42): yes
FBC ([3]; isolate NB43): 2.29
FIC ([3]; isolate NB43): 1.40
Synergy (FBC) ([3]; isolate NB43): indifferent
Synergy (FIC) ([3]; isolate NB43): indifferent
FBC ([3]; isolate NB44): 2.86
FIC ([3]; isolate NB44): 1.5
Synergy (FBC) ([3]; isolate NB44): indifferent
Synergy (FIC) ([3]; isolate NB44): indifferent
FBC ([3]; isolate NB45): 1.50
FIC ([3]; isolate NB45): 0.97
Synergy (FBC) ([3]; isolate NB45): indifferent
Synergy (FIC) ([3]; isolate NB45): indifferent
FBC ([3]; isolate Steno 1): 1.57
FIC ([3]; isolate Steno 1): 0.79
Synergy (FBC) ([3]; isolate Steno 1): indifferent
Synergy (FIC) ([3]; isolate Steno 1): indifferent
FBC ([3]; isolate Steno 2): 2.23
FIC ([3]; isolate Steno 2): 0.04
Synergy (FBC) ([3]; isolate Steno 2): indifferent
Synergy (FIC) ([3]; isolate Steno 2): yes
FBC ([3]; isolate Steno 3): 1.29
FIC ([3]; isolate Steno 3): 0.79
Synergy (FBC) ([3]; isolate Steno 3): indifferent
Synergy (FIC) ([3]; isolate Steno 3): indifferent
FBC ([3]; isolate Steno 4): 1.61
FIC ([3]; isolate Steno 4): 1.72
Synergy (FBC) ([3]; isolate Steno 4): indifferent
Synergy (FIC) ([3]; isolate Steno 4): indifferent
FBC ([3]; isolate Steno 6): 0.89
FIC ([3]; isolate Steno 6): 0.59
Synergy (FBC) ([3]; isolate Steno 6): indifferent
Synergy (FIC) ([3]; isolate Steno 6): indifferent
FBC ([3]; isolate Steno 8): 1.15
FIC ([3]; isolate Steno 8): 0.63
Synergy (FBC) ([3]; isolate Steno 8): indifferent
Synergy (FIC) ([3]; isolate Steno 8): indifferent
% FBC Synergy [3, 6]: 0%
% FIC Synergy [3, 6]: 20%
FBC ([4]; isolate NB21): 0.48
FIC ([4]; isolate NB21): 0.27
Synergy (FBC) ([4]; isolate NB21): yes
Synergy (FIC) ([4]; isolate NB21): yes
FBC ([4]; isolate NB22): 1.23
FIC ([4]; isolate NB22): 0.35
Synergy (FBC) ([4]; isolate NB22): indifferent
Synergy (FIC) ([4]; isolate NB22): yes
FBC ([4]; isolate NB23): 1.09
FIC ([4]; isolate NB23): 1.06
Synergy (FBC) ([4]; isolate NB23): indifferent
Synergy (FIC) ([4]; isolate NB23): indifferent
FBC ([4]; isolate NB24): 1.36
FIC ([4]; isolate NB24): 1.31
Synergy (FBC) ([4]; isolate NB24): indifferent
Synergy (FIC) ([4]; isolate NB24): indifferent
FBC ([4]; isolate NB25): 0.99
FIC ([4]; isolate NB25): 1.45
Synergy (FBC) ([4]; isolate NB25): indifferent
Synergy (FIC) ([4]; isolate NB25): indifferent
FBC ([4]; isolate NB26): 0.92
FIC ([4]; isolate NB26): 0.12
Synergy (FBC) ([4]; isolate NB26): indifferent
Synergy (FIC) ([4]; isolate NB26): yes
FBC ([4]; isolate NB27): 1.27
FIC ([4]; isolate NB27): 1.44
Synergy (FBC) ([4]; isolate NB27): indifferent
Synergy (FIC) ([4]; isolate NB27): indifferent
FBC ([4]; isolate NB28b): 1.06
FIC ([4]; isolate NB28b): 0.54
Synergy (FBC) ([4]; isolate NB28b): indifferent
Synergy (FIC) ([4]; isolate NB28b): yes
FBC ([4]; isolate NB29): 0.07
FIC ([4]; isolate NB29): 0.32
Synergy (FBC) ([4]; isolate NB29): yes
Synergy (FIC) ([4]; isolate NB29): yes
FBC ([4]; isolate NB30): 0.54
FIC ([4]; isolate NB30): 0.27
Synergy (FBC) ([4]; isolate NB30): yes
Synergy (FIC) ([4]; isolate NB30): yes
% FBC Synergy [4, 7]: 30%
% FIC Synergy [4, 7]: 50%

COc1cc(Cc2cnc(N)nc2N)cc(OC)c1OC [Trim]
MBC50(15) [1]: 0.5 µg/mL (≈ 1.72 µM)
MIC50(15) [1]: 0.125 µg/mL (≈ 0.431 µM)
MBC90(26) [1]: >4 µg/mL
MIC90(26) [1]: 0.5 µg/mL (≈ 1.72 µM)
MBC [1]: >64 μg/ml and >16 μg/ml (2×) and >4 μg/ml and >2 μg/ml (3×) and 4 μg/ml and 2 μg/ml (3×) and 1 μg/ml (2×) and 0.5 μg/ml (5×) and 0.25 μg/ml (6×) and 0.125 μg/ml (4×) and 0.0125 μg/ml
MIC [1]: >64 μg/ml and 1 μg/ml (2×) and 0.5 μg/ml and 0.25 μg/ml and 0.125 μg/ml (24×)

CN[C@H](CC(C)C)C(=O)N[C@H]1C(=O)N[C@@H](CC(N)=O)C(=O)N[C@H]2C(=O)N[C@H]3C(=O)N[C@H](C(=O)N[C@H](C(=O)O)c4cc(O)cc(O)c4-c4cc3ccc4O)[C@H](O)c3ccc(c(Cl)c3)Oc3cc2cc(c3O[C@@H]2O[C@H](CO)[C@@H](O)[C@H](O)[C@H]2O[C@H]2C[C@](C)(N)[C@H](O)[C@H](C)O2)Oc2ccc(cc2Cl)[C@H]1O [Vanco]
MBC50(15) [1]: 1 µg/mL (≈ 0.69 µM)
MIC50(15) [1]: 1 µg/mL (≈ 0.69 µM)
MBC90(26) [1]: 2 µg/mL (≈ 1.38 µM)
MIC90(26) [1]: 1 µg/mL (≈ 0.69 µM)
MBC [1]: 4 μg/ml (3×) and 2 μg/ml (7×) and 1 μg/ml (16×) and 0.5 μg/ml (3×)
MIC [1]: 2 μg/ml and 1 μg/ml (20×) and 0.5 μg/ml (8×)

C[C@H]1c2cccc(O)c2C(=O)C2=C(O)[C@]3(O)C(=O)C(C(N)=O)=C(O)[C@@H](N(C)C)[C@@H]3[C@@H](O)[C@@H]21 [doxycycline]
MIC90 ([1]; Staphylococcus aureus, MRSA isolates, read-out: MIC90): 4 µg/mL (≈ 9 µM)
